# Marks after values point to notes of the source that are not given here.
# Tests used:
# [1] = system: Liver cancer SK-hep1 cells; assay: In vitro antitumor activity test (MTT), SK-hep1; type: cell-based; settings: Homo sapiens, 24 h
# Procedure: (§1) 13 human tumor cell lines were selected and cultured in RPMI-1640 medium (Gibco company) containing 10% inactivated fetal bovine serum, 100 U/ml penicillin and 100 U/ml streptomycin, cultured at 37° C. in a 5% CO2 incubator, and passaged once every 2 days. Using the MTT method, cells in the logarithmic growth phase were digested with 0.25% trypsin, centrifuged at 1000 r/min for 5 min, 8×10^3 cells were added to each well, and seeded in a 96-well plate, and 180 μl of cell suspension was added to each well, and a blank was set at the same time. The 96-well plate inoculated with tumor cells was placed in a carbon dioxide incubator for 24 hours, and then 20 μl of the drug was added, and an equal volume of culture medium was added to the blank control well, and the drug was divided into 8 concentrations from 50 μg/L to 0.4 μg/L. Three duplicate wells were set for each drug concentration and placed in an incubator for 24 h. 10 μl of MTT solution (5 mg/ml) was added to each well, and the culture was continued for 4 h. The supernatant was aspirated and discarded, 100 μl of dimethyl sulfoxide (DMSO) solution was added to each well, placed on a micro shaker for 10 min, and the absorbance (A value) was measured at a wavelength of 492 nm in a microplate reader, and the inhibition rate of the drug on tumor cells was calculated according to the following formula.
# (§2) In this test, the IC50 value of the compound on tumor cells was calculated by the Origin software according to the inhibition rate of the compound. AC-201 in the following table was the abbreviation of PL-AC-201, and so on.
# [2] = Acute toxicity test of single administration to ICR mice; settings: mouse, in vivo, intravenous, single tail vein injection, observed 7 days
# Procedure: ICR mice, 18-22 g, were raised in a common-grade animal room, fed with common feed, and ingested freely. The group distance and dose were determined after exploring the Dm and Dn of the compounds of the examples. Five concentrations of the compounds of the examples were formulated at the desired dose. The corresponding doses of drugs were injected into the tail vein according to body weight, and the blank control group was injected with normal saline. Immediately after administration, the performance and death of each animal were observed and recorded, and the possible toxic reaction or death of animals within 7 days after a single administration was observed and recorded.
# [3] = system: SK-hep1 liver tumors; assay: Transplanted tumor in nude mice, intraperitoneal, SK-hep1; type: in vivo, BALB/c nude mice; settings: 8 administrations
# Procedure: (§3) BALB/c nude mice were used to inoculate Bel-7402, HepG-2 and SK-hep1 liver tumors according to the transplanted tumor research method under aseptic operation, and the cell density was not less than 5×10^6/ml, 0.2 ml was inoculated subcutaneously in the axilla of the right hind limb of each mouse. After the cells were inoculated, the cells were administered intraperitoneally (concentration: 5 mg/kg), once every 3 days, for a total of 8 administrations. After the 2nd day of drug withdrawal, all tumor-bearing mice were sacrificed, and their body weight, tumor weight and tumor inhibition were weighed.
# [4] = system: Pancreatic cancer Bxpc-3 cells; assay: In vitro antitumor activity test (MTT), Bxpc-3; type: cell-based; settings: Homo sapiens; Pancreatic cancer Bxpc-3, MTT, 24 h
# Procedure: as §1, §2
# [5] = system: Bel-7402 liver tumors; assay: Transplanted tumor in nude mice, intraperitoneal, Bel-7402; type: in vivo, BALB/c nude mice; settings: 8 administrations
# Procedure: as §3
# [6] = system: Colon cancer HT29 cells; assay: In vitro antitumor activity test (MTT), HT29; type: cell-based; settings: Homo sapiens, HT-29, 24 h
# Procedure: as §1, §2
# [7] = system: Cervical cancer Hela cells; assay: In vitro antitumor activity test (MTT), Hela; type: cell-based; settings: Homo sapiens, 24 h
# Procedure: as §1, §2
# [8] = system: Human osteosarcoma MG63 cells; assay: In vitro antitumor activity test (MTT), MG63; type: cell-based; settings: MG-63, 24 h
# Procedure: as §1, §2
# [9] = system: Lung cancer H292 cells; assay: In vitro antitumor activity test (MTT), H292; type: cell-based; settings: Homo sapiens, NCI-H292, 24 h
# Procedure: as §1, §2
# [10] = system: Melanoma B16 cells; assay: In vitro antitumor activity test (MTT), B16; type: cell-based; settings: 24 h
# Procedure: as §1, §2
# [11] = system: human red blood cells; assay: Detection of hemolytic activity; type: cell-based
# Procedure: 2-3 ml of human blood was drawn using an anticoagulant tube, thoroughly mixed, and kept at 4° C. for later use. 2 ml of blood was aspirated and added with 2-3 ml of PBS, followed by gently pipetting and centrifugation for 5 min at 1000 rpm, which was repeated 3-4 times. After the last centrifugation, PBS was aspirated, PBS was added to 40 ml (20 times the volume), and the number of blood cells at this time was 2×10^8 cells/ml. The red blood cell suspension was added to the plate (U-shaped 96-well plate), and 70 μl/well was used as a negative well. Only PBS was added to blank wells, 140 μl/well. 2 ml of the red blood cell suspension was centrifuged, PBS was discarded, 2 ml of pure water was added, mixed well, and 140 μl/well was used as a positive well. The diluted polypeptide solutions of different concentrations were added to the plate, 70 μl/well. Incubated at 37° C., 87 rpm, shaken for 2h, centrifuged for 5 min at 3000 rpm. The OD value measured by microplate reader: After centrifugation, 90 μl of supernatant was drawn and transferred to a flat-bottom 96-well plate, and the OD value at 578 nm was measured by microplate reader. ODtest-OD negative >0.1 (the first concentration that met the conditions was MHC).
# [12] = system: Liver cancer Bel-7402 cells; assay: In vitro antitumor activity test (MTT), Bel-7402; type: cell-based; settings: Homo sapiens; Liver cancer Bel-7402, MTT, 24 h
# Procedure: as §1, §2
# [13] = system: HepG-2 liver tumors; assay: Transplanted tumor in nude mice, intraperitoneal, HepG-2; type: in vivo, BALB/c nude mice; settings: 8 administrations
# Procedure: as §3
# [14] = system: 13 human tumor cell lines; assay: Average IC50 over the tumor cell lines (MTT); type: cell-based; settings: mean IC50 for each tumor, read-out: AverageIC50
# Procedure: as §1, §2
# The ratio of the hemolytic concentration MHC of the compound to the mean IC50 for each tumor was referred to as the therapeutic index (TI). The safety of the compound was evaluated by the therapeutic index. The higher the therapeutic index, the greater the safety range of the compound.
# [15] = system: Lung cancer H460 cells; assay: In vitro antitumor activity test (MTT), H460; type: cell-based; settings: Homo sapiens, NCI-H460, 24 h
# Procedure: as §1, §2
# [16] = system: Lung cancer A549 cells; assay: In vitro antitumor activity test (MTT), A549; type: cell-based; settings: Homo sapiens, 24 h
# Procedure: as §1, §2
# [17] = system: Liver cancer HepG-2 cells; assay: In vitro antitumor activity test (MTT), HepG-2; type: cell-based; settings: Homo sapiens, HepG2; Liver cancer HepG-2, MTT, 24 h
# Procedure: as §1, §2
# [18] = system: Breast cancer MCF-7 cells; assay: In vitro antitumor activity test (MTT), MCF-7; type: cell-based; settings: Homo sapiens, MCF7; Breast cancer MCF-7, MTT, 24 h
# Procedure: as §1, §2
# [19] = system: Lung cancer H1299 cells; assay: In vitro antitumor activity test (MTT), H1299; type: cell-based; settings: Homo sapiens, NCI-H1299, 24 h
# Procedure: as §1, §2
# [20] = SK-hep1, 5 mg/kg i.p. once every 3 days
# [21] = Bel-7402, 5 mg/kg i.p. once every 3 days
# [22] = HepG-2, 5 mg/kg i.p. once every 3 days
smiles,measurement,setting,value
CC(C(=O)NC(Cc1ccc(-c2ccccc2)cc1)C(=O)NC1CC(C)(C)NC(C)(C)C1)c1cccc(C(=O)c2ccccc2)c1 (centres unmarked) [PL-AC-206],IC50,[1],15.7 nM
same,LD50 at 7 days,[2],31.7 mg/kg
same,Tumor inhibition rate,[3]; [20],^ΔΔ69.9** %
same,Tumor weight,[3]; [20],337.3 ± 6.1 mg
same,Body Weight After administration,"[3]; SK-hep1 tumor-bearing BALB/c mice, 5 mg/kg i.p. once every 3 days",23.0 ± 1.5 g
same,IC50,[4],37.7 nM
same,Tumor inhibition rate,[5]; [21],^ΔΔ71.4** %
same,Tumor weight,[5]; [21],226.8 ± 9.1 mg
same,Body Weight After administration,"[5]; Bel-7402 tumor-bearing BALB/c mice, 5 mg/kg i.p. once every 3 days",23.8 ± 1.3 g
same,IC50,[6],37.4 nM
same,IC50,[7],19.2 nM
same,IC50,[8],24.9 nM
same,IC50,[9],24.1 nM
same,IC50,[10],30.1 nM
same,MHC,"[11]; hemolytic concentration, in nM",4.9e+06 nM
same,MHC,"[11]; human red blood cells, 37° C., 2h, first concentration with ODtest-OD negative >0.1",3000 µg/mL
same,IC50,[12],< 38.2 nM
same,Tumor inhibition rate,[13]; [22],^ΔΔ74.6** %
same,Tumor weight,[13]; [22],468.9 ± 2.2 mg
same,Body Weight After administration,"[13]; HepG-2 tumor-bearing BALB/c mice, 5 mg/kg i.p. once every 3 days",23.5 ± 1.1 g
same,IC50,[14],24.6 nM
same,IC50,[15],20 nM
same,IC50,[16],27.5 nM
same,IC50,[17],16.1 nM
same,IC50,[18],22.5 nM
same,IC50,[19],20.2 nM
